Results as given in US20200000772A1, “CENICRIVIROC COMBINATION THERAPY FOR THE TREATMENT OF FIBROSIS” (Tobira Therapeutics, Inc., priority 2014, published 2020).
Where a name gives a salt, the structure may show the parent alone.

Assays:
[1] = Solubility of cenicriviroc mesylate; assay type: physicochemical
Excerpt: In one embodiment, the acid addition salt of cenicriviroc is cenicriviroc mesylate, e.g., (S)-8-[4-(2-Butoxyethoxy)phenyl]-1-isobutyl-N-(4-{[(1-propyl-1H-imidazol-5-yl)methyl]sulfinyl}phenyl)-1,2,3,4-tetrahydro-1-benzazocine-5-carboxamide monomethanesulfonoate. In one embodiment, the cenicriviroc mesylate is a crystalline material, such as a pale greenish-yellow crystalline powder.

[2] = system: HIV-1 infected adult subjects; experiment: Study 202 biomarkers of inflammation; assay type: in vivo, human
Description: As an exploratory analysis, levels of inflammation biomarkers MCP-1, sCD14, high sensitivity C-reactive protein [hs-CRP], interleukin-6 [IL-6], D-dimer, and fibrinogen) were measured. Baseline values and changes from baseline at Week 24 and Week 48 of MCP-1, sCD14, hs-CRP, IL-6, D-dimer, and fibrinogen are summarized in Table 22.
The sCD14 samples were originally analyzed in 2 separate batches: Batch 1 included samples leading up to the Week 24 primary analysis and Batch 2 included Week 32 and Week 48 (end of study) samples. A repeat analysis of archived samples all analyzed in one batch was conducted for consistency in analysis across time points. To control for the effects of covariates, a linear mixed-model repeated-measures analysis was conducted on the changes from baseline in sCD14 (analysis dated September 2013).

[3] = system: adults with CCR5 tropic HIV-1; experiment: Study 202 post-hoc APRI and FIB-4 fibrosis index scores; assay type: in vivo, human
Description: APRI and FIB-4 scores were calculated. Change in score category from baseline (BL) to Weeks 24 and 48 was assessed in patients with non-missing data. Correlations between changes from BL in APRI and FIB-4 scores, and MCP-1 (CCR2 ligand) and sCD14 (inflammatory biomarker) levels were evaluated.

[4] = Phase 1 CVC and pioglitazone co-administration PK and safety study; assay type: in vivo, healthy subjects; conditions: CVC 150 mg QD and PGZ 45 mg QD
Description: Plasma samples were collected prior to each dose and over 24 hours at the end of each treatment period. Cmax, Cmin, tmax, and AUC0-tau were determined using non-compartmental methods. Geometric means, GMRs and CIs were calculated.

## CCCCOCCOc1ccc(-c2ccc3c(c2)C=C(C(=O)Nc2ccc([S@@+]([O-])Cc4cncn4CCC)cc2)CCCN3CC(C)C)cc1 [cenicriviroc mesylate, (S)-8-[4-(2-Butoxyethoxy)phenyl]-1-isobutyl-N-(4-{[(1-propyl-1H-imidazol-5-yl)methyl]sulfinyl}phenyl)-1,2,3,4-tetrahydro-1-benzazocine-5-carboxamide monomethanesulfonoate]
[1]; 99.5% ethanol
  solubility: sparingly soluble
[1]; acetonitrile, 1-octanol, tetrahydrofuran
  solubility: slightly soluble
[1]; aqueous solution at pH 3
  solubility: sparingly soluble
[1]; aqueous solution from pH 1 to 2
  solubility: freely soluble
[1]; ethyl acetate and diethylether
  solubility: practically insoluble
[1]; glacial acetic acid, methanol, benzyl alcohol, dimethylsulfoxide, N,N-dimethylformamide
  solubility: freely soluble
[1]; pH 4 to 13 and in water
  solubility: practically insoluble
[1]; pyridine and acetic anhydride
  solubility: soluble

## O=C1Nc2ccc(Cl)cc2[C@@](C#CC2CC2)(C(F)(F)F)O1 [EFV, efavirenz, reference compound]
[2]; CVC 100 mg and 200 mg, EFV, up to Week 48
  plasma MCP-1 over time: remained at baseline values
[2]; EFV 600 mg
  D-dimer Changes from baseline at Week 24, Mean: -53 ng/mL
  D-dimer Changes from baseline at Week 24, Median: -26 ng/mL
  D-dimer Changes from baseline at Week 48, Mean: -34 ng/mL
  D-dimer Changes from baseline at Week 48, Median: 0.0 ng/mL
  Fibrinogen Changes from baseline at Week 24, Mean: -28 mg/dL
  Fibrinogen Changes from baseline at Week 24, Median: -31 mg/dL
  Fibrinogen Changes from baseline at Week 48, Mean: -30 mg/dL
  Fibrinogen Changes from baseline at Week 48, Median: -22 mg/dL
  IL-6 Changes from baseline at Week 24, Mean: -8.72 pg/mL
  IL-6 Changes from baseline at Week 24, Median: 0.00 pg/mL
  IL-6 Changes from baseline at Week 48, Mean: -13.11 pg/mL
  IL-6 Changes from baseline at Week 48, Median: 0.00 pg/mL
  MCP-1 Changes from baseline at Week 24, Mean: -44 pg/mL
  MCP-1 Changes from baseline at Week 24, Median: -17 pg/mL
  MCP-1 Changes from baseline at Week 48, Mean: 4.2 pg/mL
  MCP-1 Changes from baseline at Week 48, Median: 33.6 pg/mL
  hs-CRP Changes from baseline at Week 24, Mean: -0.46 mg/dL
  hs-CRP Changes from baseline at Week 24, Median: -0.01 mg/dL
  hs-CRP Changes from baseline at Week 48, Mean: -0.71 mg/dL
  hs-CRP Changes from baseline at Week 48, Median: -0.03 mg/dL
[2]; EFV 600 mg, original values
  sCD14 Changes from baseline Week 32, Mean: 480000 pg/mL
  sCD14 Changes from baseline Week 32, Median: 170000 pg/mL
  sCD14 Changes from baseline at Week 12, Mean: 90000 pg/mL
  sCD14 Changes from baseline at Week 12, Median: 1.8e+07 pg/mL
  sCD14 Changes from baseline at Week 24, Mean: 230000 pg/mL
  sCD14 Changes from baseline at Week 24, Median: 130000 pg/mL
  sCD14 Changes from baseline at Week 48, Mean: 640000 pg/mL
  sCD14 Changes from baseline at Week 48, Median: 460000 pg/mL
[2]; both CVC treatment arms, EFV arm
  sCD14 over 48 weeks of treatment (linear mixed-model analysis of repeat sCD14 analysis): increase
[3]; Baseline
  subjects with APRI 0.5-1.5: 4%
  subjects with APRI <0.5: 96%
  subjects with FIB-4 <1.45: 100%
[3]; Week 24
  subjects with APRI <0.5: 100%
  subjects with APRI decreased 1 category from baseline: 5%
  subjects with FIB-4 <1.45: 100%
[3]; Week 48
  subjects with APRI <0.5: 100%
  subjects with APRI decreased 1 category from baseline: 6%
  subjects with FIB-4 1.45-3.25: 6%
  subjects with FIB-4 <1.45: 94%

## CCc1ccc(CCOc2ccc(CC3SC(=O)NC3=O)cc2)nc1 (centres unmarked) [PGZ, Pioglitazone, reference compound]
[4]
  Cmin on co-administration: remained unchanged
  steady-state Cmax and AUC0-tau on co-administration: modest decrease
